The results in this text go back to article PMC11844072, “Novel 5,6-dichlorobenzimidazole derivatives as dual BRAFWT and BRAFV600E inhibitors: design, synthesis, anti-cancer activity and molecular dynamics simulations” (BMC Chemistry, 2025).

A value given as a limit tells only on which side of the number the result lay.

Experiment [1] deals with NCI/ADR-RES. The experiment is described as follows: NCI 60 single concentration growth inhibition. In kind it is cell-based, human. As to conditions: Homo sapiens, Ovarian cancer, read-out: GI%. The protocol: (§1) The synthesized dichlorobenzimidazoles 10a–p were assayed for their influence on divers cancer cell lines according to the method presented in the Additional file A.
(§2) 5. Screening of cytotoxic activity against a panel of sixty human tumor cell lines
(§3) The selected compounds by NCI were evaluated for their anticancer activity in a two-stage process. First, these compounds were screened against the full NCI 60 cell lines panel at a single high dose of 10 µM. Then, the output from the single dose screen is reported as a mean graph. […]
(§4) Assay protocol. The human tumor cell lines of the cancer screening panel are grown in RPMI 1640 medium containing 5% fetal bovine serum and 2 mM L-glutamine. For a typical screening experiment, cells are inoculated into 96 well microtiter plates in 100 µL at plating densities ranging from 5000 to 40,000 cells/well depending on the doubling time of individual cell lines. After cell inoculation, the microtiter plates are incubated at 37 °C, 5% CO 2, 95% air and 100% relative humidity for 24 h prior to addition of the experimental drugs.
(§5) After 24 h, two plates of each cell line are fixed in situ with TCA, to represent a measurement of the cell population for each cell line at the time of drug addition (Tz). The experimental drugs are solubilized in dimethyl sulfoxide at 400-fold the desired final maximum test concentration and stored frozen prior to use. At the time of drug addition, an aliquot of frozen concentrate is thawed and diluted to twice the desired final maximum test concentration with complete medium containing 50 µg/mL gentamicin. Additional four, 10-fold or ½ log serial dilutions are made to provide a total of five drug concentrations plus control.
(§6) Aliquots of […] of these different drug dilutions are added to the appropriate microtiter wells already containing […] of medium, resulting in the required final drug concentrations.
(§7) Following drug addition, the plates are incubated for an additional 48 h at 37 °C, 5% CO 2, 95% air, and 100% relative humidity. For adherent cells, the assay is terminated by the addition of cold TCA.
(§8) Cells are fixed in situ by the gentle addition of 50 µL of cold 50% (w/v) TCA (final concentration, 10% TCA) and incubated for 60 min at 4 °C. The supernatant is discarded, and the plates are washed five times with tap water and air dried. Sulforhodamine B (SRB) solution ([…]) at 0.4% (w/v) in 1% acetic acid is added to each well, and plates are incubated for 10 min at room temperature. After staining, unbound dye is removed by washing five times with 1% acetic acid and the plates are air dried. Bound stain is subsequently solubilized with 10 mM trizma base, and the absorbance is read on an automated plate reader at a wavelength of 515 nm. For suspension cells, the methodology is […]
(§9) the same except that the assay is terminated by fixing settled cells at the bottom of the wells by gently adding 50 µl of 80% TCA (final concentration, 16% TCA). Using the seven absorbance measurements [time zero, (Tz), control growth, (C), and test growth in the presence of drug at the five concentration levels (Ti)], the percentage growth is calculated at each of the drug concentrations […]
(§10) Percentage growth inhibition is calculated as: [(Ti Tz)/(C–Tz)] x 100 for concentrations for which Ti>/=Tz and [(Ti-Tz)/Tz] x 100 for concentrations for which Ti < Tz. […]
(§11) Results for each compound were reported as a mean graph of the percent growth of the treated cells when compared to the untreated control cells. There after obtaining the results for one dose assay, analysis of historical Development Therapeutics Programme (DTP) was performed and compounds which satisfies predetermined threshold inhibition criteria is selected for NCI full panel 5 dose assay.

For experiment [2], the system named is HCC-2998. Put plainly: NCI 60 single concentration growth inhibition. The experiment is classed as cell-based, human. Particulars: Homo sapiens, HCC-2998, Colon cancer, read-out: GI%. On the procedure: as §1, §2, §3, §4, §5, §6, §7, §8, §9, §10, §11
Experiment [3] deals with OVCAR-3. The experiment is described as follows: NCI 60 single concentration growth inhibition. In kind it is cell-based, human. As to conditions: Homo sapiens, OVCAR-3, Ovarian cancer, read-out: GI%. On the procedure: as §1, §2, §3, §4, §5, §6, §7, §8, §9, §10, §11
In experiment [4] the test system is DU-145. Put plainly: NCI 60 single concentration growth inhibition. Particulars: Homo sapiens, DU-145, Prostate cancer, read-out: GI%. In kind it is cell-based, human. On the procedure: as §1, §2, §3, §4, §5, §6, §7, §8, §9, §10, §11
Experiment [5] concerns LOX IMVIL. Put plainly: NCI 60 single concentration growth inhibition. In kind it is cell-based, human. As to conditions: Homo sapiens, Melanoma, read-out: GI%. On the procedure: as §1, §2, §3, §4, §5, §6, §7, §8, §9, §10, §11
Experiment [6] relates to SW-620. Put plainly: NCI 60 single concentration growth inhibition. In kind it is cell-based, human. As to conditions: Homo sapiens, SW-620, Colon cancer, read-out: GI%. On the procedure:
as §1, §2, §3, §4, §5, §6, §7, §8, §9, §10, §11

Experiment [7] concerns HCT-15. Put plainly: NCI 60 single concentration growth inhibition. In kind it is cell-based, human. Particulars: Homo sapiens, HCT-15, Colon cancer, read-out: GI%. On the procedure: as §1, §2, §3, §4, §5, §6, §7, §8, §9, §10, §11
Experiment [8] relates to HT29. The experiment is described as follows: NCI 60 single concentration growth inhibition. The experiment is classed as cell-based, human. As to conditions: Homo sapiens, HT-29, HT29, Colon cancer, read-out: GI%. The protocol: as §1, §2, §3, §4, §5, §6, §7, §8, §9, §10, §11
Experiment [9] concerns NCI-H522. Put plainly: NCI 60 single concentration growth inhibition. The experiment is classed as cell-based, human. Particulars: Homo sapiens, NCI-H522, Non-small cell lung cancer, read-out: GI%. On the procedure:
as §1, §2, §3, §4, §5, §6, §7, §8, §9, §10, §11

Experiment [10] has as its system NCI 60 cancer cell line panel. Put plainly: NCI 60 single concentration growth inhibition, panel mean. Particulars: Homo sapiens, mean over NCI 60 panel, read-out: Mean GI%. The experiment is classed as cell-based. On the procedure: as §1, §2, §3
at five different minimal concentrations.
as §4, §5, §6, §7, §8, §9
Percentage growth inhibition is calculated as: [(Ti Tz)/(C–Tz)] x 100 for concentrations for which Ti>/=Tz and [(Ti-Tz)/Tz] x 100 for concentrations for which Ti < Tz.
Three dose response parameters are calculated for each experimental agent. Growth […]
concentration resulting in a 50% reduction in the net protein increase (as measured by SRB staining) in control cells during the drug incubation. The drug concentration resulting in total growth inhibition (TGI) is calculated from Ti = Tz. […]
reduction in the measured protein at the end of the drug treatment as compared to that at the beginning) indicating a net loss of cells following treatment is calculated from [(Ti–Tz)/Tz] x 100 =
_50. Values are calculated for each of these three parameters if the level of activity is reached; […]

Experiment [11] has as its system CAKI-1. Put plainly: NCI 60 single concentration growth inhibition. In kind it is cell-based, human. Particulars: Homo sapiens, CAKI-1, Renal cancer, read-out: GI%. Put shortly: (§12)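 Single-dose screen at 10 µM across the NCI-60 panel, then five concentrations (10-fold or ½ log dilutions) for selected compounds. Cells in RPMI 1640, 5% FBS, 2 mM L-glutamine, preincubated 24 h, then drug exposure 48 h at 37 °C. TCA fixation, SRB stain read at 515 nm; percent growth calculated against time-zero and untreated controls.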

The subject of experiment [12] is MOLT-4. Put plainly: NCI 60 single concentration growth inhibition. The experiment is classed as cell-based, human. As to conditions: Homo sapiens, MOLT-4, Leukemia, read-out: GI%. The gist of the method:
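Read-out is SRB absorbance at 515 nm after TCA fixation (10% for adherent lines, 16% for suspension lines). Drugs were applied for 48 h following a 24 h plating period. Growth percentages came from time-zero, control and treated absorbances.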

The test system of experiment [13] is SF-539. The experiment is described as follows: NCI 60 single concentration growth inhibition. Particulars: Homo sapiens, SF-539, CNS cancer, read-out: GI%. The experiment is classed as cell-based, human. The gist of the method:
as §12

Experiment [14] relates to MDA-MB-435. Put plainly: NCI 60 single concentration growth inhibition. In kind it is cell-based, human. As to conditions: Homo sapiens, MDA-MB-435, Melanoma, read-out: GI%. The gist of the method:
as §12

In experiment [15] the test system is RPMI-8226. Put plainly: NCI 60 single concentration growth inhibition. The experiment is classed as cell-based, human. As to conditions: Homo sapiens, RPMI-8226, Leukemia, read-out: GI%. Put shortly: as §12
Experiment [16] deals with KM12. Put plainly: NCI 60 single concentration growth inhibition. In kind it is cell-based, human. As to conditions: Homo sapiens, KM12, Colon cancer, read-out: GI%. The gist of the method:
as §12

Experiment [17] deals with HCT-116. Put plainly: NCI 60 single concentration growth inhibition. In kind it is cell-based, human. As to conditions: Homo sapiens, HCT-116, Colon cancer, read-out: GI%. The gist of the method: as §12
Experiment [18] relates to NCI-H23. Put plainly: NCI 60 single concentration growth inhibition. In kind it is cell-based, human. Particulars: Homo sapiens, NCI-H23, Non-small cell lung cancer, read-out: GI%. Put shortly:
as §12

Regarding `COC(=O)COc1cccc(C=NNC(=O)Cn2c(-c3ccc(OC)cc3)nc3cc(Cl)c(Cl)cc32)c1` [Compound 10g, Methyl-2-(3-((2-(2-(5,6-dichloro-2-(4-methoxyphenyl)-1H-benzo[d]imidazol-1-yl)acetyl)hydrazono)methyl)phenoxy)acetate], the inhibition at 10 µM in experiment [1] is under 5%; in [2] it was 44%; in experiment [3], under 5%; in experiment [4], 110%; in experiment [5], 19.1%; in experiment [6], under 5%. Also, the inhibition at 10 µM came to 21.4% in experiment [7]; 51.7% in experiment [8]; 9.11% in [9]; 14.6% in experiment [10]; 10.5% in experiment [11]; 30.4% in experiment [12]. The inhibition at 10 µM in experiment [13] was 26.5%; in [14], 11.9%; in experiment [15] it was under 5%; in [16], under 5%; in [17] it was 10.6%; in experiment [18], under 5%.

Consider `COc1ccc(C=NNC(=O)Cn2c(-c3ccc(OC)cc3)nc3cc(Cl)c(Cl)cc32)cc1` [Compound 10d, 2-(5,6-Dichloro-2-(4-methoxyphenyl)-1H-benzo[d]imidazol-1-yl)-N'-(4-methoxybenzylidene)acetohydrazide], for which the inhibition at 10 µM in experiment [1] stood at 36%; in experiment [2] it was 34.9%; in experiment [3] it was 22.7%; in [4], 41.2%; in [5], 24.7%; in experiment [6], 32.3%. Also, the inhibition at 10 µM stood at 62.9% in experiment [7]; 37.5% in experiment [8]; 27.9% in experiment [9]; 44.6% in experiment [10]; 52% in [11]; 68.9% in experiment [12]. The inhibition at 10 µM is 34.2% in [13]; 41.4% in experiment [14]; 64.9% in experiment [15]; 40.8% in experiment [16]; 61.3% in experiment [17]; 50.9% in [18].

For `COc1ccc(-c2nc3cc(Cl)c(Cl)cc3n2CC(=O)NN=Cc2cccc(OCC(=O)O)c2)cc1` [Compound 10e, 2-(3-((2-(2-(5,6-Dichloro-2-(4-methoxyphenyl)-1H-benzo[d]imidazol-1-yl)acetyl)hydrazono)methyl)phenoxy)acetic acid], the inhibition at 10 µM in experiment [1], in experiment [2], in experiment [3], in experiment [4], in [5] and in experiment [6] was under 5% each time. In addition, the inhibition at 10 µM in experiment [7], in experiment [8], in [9], in [10], in experiment [11] and in experiment [12] was under 5% each time. Further, the inhibition at 10 µM in [13] is under 5%; in [14], under 5%; in [15], under 5%; in experiment [16] it was under 5%; in experiment [17] it was under 5%; in experiment [18], 5.12%.
